The source of these data is US20120107861A1, “METHOD OF DETERMINING RISK OF ARRHYTHMIA” (priority 2010, published 2012).

Read-outs that look alike come from different tables or passages of the source.

Data set [1] relates to human iPSC-derived cardiomyocytes (iCells). As to conditions: for IB20: lowest concentration producing IBR ≥0.2 (≥20% irregular beats over one minute); for amplitude of impedance: amplitude of each beat. The procedure:
Cell Culture. hiPSC-derived cardiomyocytes (iCells) from Cellular Dynamics International (CDT) were thawed in Plating Media (CDI and plated as single cells onto 0.1% Gelatin (Sigma)-coated, 6-well tissue-culture plates (Corning) at a density of 2.2−2.7×10^6 cells per well. Cells were cultured for 3-5 d at 37° C., 7% CO2 prior to re-plating onto xCELLigence® 96-well cardio e-plates (ACEA/Roche Applied Sciences) or microelectrode arrays (MEAs, Multichannel Systems). The media was changed every 2 d after plating using Maintenance Media (CDI), pre-warmed to 37° C. to minimize the temperature shock on cells.
xCELLigence® cardio e-plates and MEA Re-plating. iCells cultured in 6-well plates were harvested by twice washing in dPBS (GIBCO) then lifted with 0.5% Trypsin-EDTA (GIBCO), incubated at 37° C., 7% CO2. Trypsin was quenched with Maintenance Media and cells were collectively centrifuged at 69 g for 5 minutes and resuspended in Maintenance Media to yield the target density. For cardio e-plate reseeding, cells were plated at a target density of 5×10^4 per well, estimating 80% seeding efficiency. Cardio e-plates were coated with 0.1% Gelatin for 3 h at 37° C. Background impedance measurements for cardio e-plates were made with the final volume of media equilibrated to 37° C. but without cells, immediately prior to reseeding the cells. The cells were monitored every 1 h by a 20 s sweep duration by the xCELLigence® RTCA cardio system at its maximum sampling rate (77 Hz) prior to initiating experimentation.
xCELLigence® and MEA Experimentation. Compound stocks were prepared in DMSO or dH2O at 1000 fold the highest tested concentration. For xCELLigence® experimentation, compound stocks were serially diluted in Maintenance Media in a separate 96-well tissue culture plate (Corning) at twice the target concentration. The dilution plate was incubated and equilibrated to 37° C. prior to cell exposure. […] All compounds were tested as n≧3 on multiple cardio e-plates. The xCELLigence® monitored changes to the beating for periodic 20 s sweep durations at 77 Hz.
Data Analysis. Data were first analyzed by the built-in analysis modules of xCELLigence® and MEAs systems, initial results were then exported into in-house developed Microsoft Excel templates for further semi-auto analysis. […] To calculate the “Predicted Proarrhythmic Score” (PPS), we first determined a “Irregular Beat Ratio” (IBR). The IBR was defined as the ratio of arrhythmic beat counts to the total number of beats over one minute. IBR values for each concentration at each selected time-point was averaged from 3 to 5 e-plates. The lowest concentration of drug, that generated a IBR value ≧0.2 was determined and termed “IB20.” Finally, the maximal therapeutic plasma concentration (Cmax) was divided by the IB20 to arrive at the PPS. A PPS >100 is a level of concern for drug-induced arrhythmia. […]

For data set [2] the following is noted: maximum therapeutic plasma concentration, cited from earlier work.
Another data set relates to TdP. To be noted: clinical; cited from earlier work.
For another data set, the system named is QT interval. To be noted: cited from earlier work.
Data set [3] concerns human iPSC-derived cardiomyocytes (iCells). In words: Multi-electrode array (MEA) field potential recording of iPSC-derived cardiomyocytes. It counts as cell-based. As to conditions: iPSC-CMs. The procedure: MEAs were prepared according to manufacturer guidelines. Briefly, microelectrodes in 6-well MEA dishes were coated with 2 μL Fibronectin (Sigma) diluted 1:20 and incubated at 37° C. for 3 h. Cells were reseeded at the target density of 3×10^4 cells in a 2 μL delivery to microelectrodes and incubated at 37° C., 7% CO2 for 3 h prior to filling each well with Maintenance Media. The media of cardio e-plates and MEAs were changed every 2 d thereafter, using Maintenance Media warmed to 37° C. Cells were cultured for 3-7 d prior to conducting an experiment on cardio e-plates or MEAs.
The wells of the MEAs had half the volume in each well replaced with fresh warm Maintenance Media, immediately prior to experimentation so as to be consistent with the media replacement for xCELLigence® experimentation. MEAs were allowed a 15 min equilibration period within the MEA recorder system (Multichannel Systems), prior to compound exposure. The temperature was maintained at 37° C. and a constant air flow of 95% O2, 5% CO2, was perfused over the MEAs. Compound additions were made in serially increasing additions, recording for 15 min at each concentration. All compounds were tested as n≧4 wells.

The target of another data set is hERG channel (Homo sapiens, UniProt Q12809). As to conditions: cited from earlier work.
Where [4] appears, read: Table I, Cmax/IB20, cut-off >100 as level of concern.

Chain of hERG channel (Q12809 whole entry): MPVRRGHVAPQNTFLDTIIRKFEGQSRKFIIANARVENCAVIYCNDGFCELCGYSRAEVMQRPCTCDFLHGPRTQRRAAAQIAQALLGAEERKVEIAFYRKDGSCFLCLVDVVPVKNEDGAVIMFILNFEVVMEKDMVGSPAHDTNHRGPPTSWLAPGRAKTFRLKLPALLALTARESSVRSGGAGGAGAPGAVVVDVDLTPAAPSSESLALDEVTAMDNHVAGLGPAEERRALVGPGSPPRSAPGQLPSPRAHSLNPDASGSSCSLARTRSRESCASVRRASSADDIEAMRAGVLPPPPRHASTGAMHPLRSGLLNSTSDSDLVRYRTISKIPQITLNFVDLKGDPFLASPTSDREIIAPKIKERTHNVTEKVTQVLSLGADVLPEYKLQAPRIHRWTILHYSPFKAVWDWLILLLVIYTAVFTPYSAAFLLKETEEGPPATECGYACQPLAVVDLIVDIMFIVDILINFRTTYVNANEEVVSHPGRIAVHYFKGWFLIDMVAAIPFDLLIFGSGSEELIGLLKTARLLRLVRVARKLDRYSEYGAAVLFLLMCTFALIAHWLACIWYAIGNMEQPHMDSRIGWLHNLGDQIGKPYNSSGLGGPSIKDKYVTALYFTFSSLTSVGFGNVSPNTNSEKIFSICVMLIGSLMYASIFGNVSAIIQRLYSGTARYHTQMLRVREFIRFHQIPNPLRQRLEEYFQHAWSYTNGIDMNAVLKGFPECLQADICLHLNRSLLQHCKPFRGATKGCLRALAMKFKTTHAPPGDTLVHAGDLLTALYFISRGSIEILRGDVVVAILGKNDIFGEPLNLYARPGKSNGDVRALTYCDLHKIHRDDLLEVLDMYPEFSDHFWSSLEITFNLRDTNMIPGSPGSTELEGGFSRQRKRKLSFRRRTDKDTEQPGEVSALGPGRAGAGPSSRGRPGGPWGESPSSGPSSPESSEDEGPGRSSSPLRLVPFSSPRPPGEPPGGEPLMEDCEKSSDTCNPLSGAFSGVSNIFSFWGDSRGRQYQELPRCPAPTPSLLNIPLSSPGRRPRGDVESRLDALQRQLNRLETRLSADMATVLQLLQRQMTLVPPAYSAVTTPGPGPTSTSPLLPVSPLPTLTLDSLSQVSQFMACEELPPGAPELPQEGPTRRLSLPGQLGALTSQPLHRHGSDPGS

Consider `CCN1C[C@]2(COC)[C@H](O)C[C@H](OC)[C@@]34[C@@H]5C[C@@]6(O)[C@H](OC(=O)c7ccccc7)[C@@H]5[C@@](OC(C)=O)([C@@H]([C@H](OC)[C@H]23)[C@@H]14)[C@@H](O)[C@@H]6OC` [Aconitine], for which the “concentration showing arrhythmia relative to the efficacious concentration” value in data set [1] is reported as “arrhythmia at concentrations less than the efficacious concentration”. The PPS in data set [1] (setting [4]) was 2567; in data set [1] (human) it was 0.4. For the same molecule, the IB20 in data set [1] (Table I) and in data set [1] (Table II) was 0.03 µM throughout. The Cmax in data set [2] (Table I) and in data set [2] (Table II) was 77 nM each time.

`COc1cc2nc(N(C)CCCNC(=O)C3CCCO3)nc(N)c2cc1OC` (centres unmarked) [Alfuzosin]: the “effect at concentrations substantially higher than employed in vivo” value in data set [1] is “beat rate reduction and appearance of arrhythmic beats”. Besides, the “TdP liability” value in the data set with TdP is given as “free of TdP”. Besides, the highest concentration (Cmax) in data set [2] (Table I) and in data set [2] (Table II) was 56 nM each time. In addition, the “QT prolongation” value with QT interval (in patients / in vivo) is on record as “induce QT prolongation”.

With `CCCCc1oc2ccccc2c1C(=O)c1cc(I)c(OCCN(CC)CC)c(I)c1` [Amiodarone], in the data set on TdP, the “TdP liability” value is given as “very low risk of TdP”.

On to `CC1(C)S[C@@H]2[C@H](NC(=O)[C@H](N)c3ccc(O)cc3)C(=O)N2[C@H]1C(=O)O` [Amoxicillin], for which the IB20 in data set [1] (Table I) is >1,000 μM; in data set [1] (Table II) it was >1,000,000 nM. Further, the “TdP liability” value with TdP is “devoid of QT prolongation and TdP liability”. Also, the Cmax in data set [2] (Table I) and in data set [2] (Table II) was 17000 nM throughout. Further, the “QT prolongation” value in the data set on QT interval (in patients / in vivo) is on record as “devoid of QT prolongation”.

With `CC(=O)Oc1ccccc1C(=O)O` [Aspirin], the “TdP liability” value in the data set with TdP was “devoid of QT prolongation and TdP liability”. The highest concentration (Cmax) in data set [2] (Table I) and in data set [2] (Table II) was 10000 nM in each case. Further, the “QT prolongation” value in the data set with QT interval (in patients / in vivo) is listed as “devoid of QT prolongation”.

Take `COc1ccc(CCN2CCC(Nc3nc4ccccc4n3Cc3ccc(F)cc3)CC2)cc1` [Astemizole]: the Cmax in data set [2] (Table I) and in data set [2] (Table II) was 8 nM in each case.

On to `C[C@H](CS)C(=O)N1CCC[C@H]1C(=O)O` [Captopril], for which the PPS in data set [1] (setting [4]) is under 25. For the same molecule, the Cmax in data set [2] (Table I) and in data set [2] (Table II) was 2470 nM in each case. In the data set with QT interval (human, in vivo), the “QT prolongation” value is “devoid of QT prolongation”.

Consider `COc1cc(N)c(Cl)cc1C(=O)NC1CCN(CCCOc2ccc(F)cc2)CC1OC` (centres unmarked) [Cisapride], for which the “alterations in beat patterns / arrhythmic beats” value in data set [1] is listed as “Irregular beating patterns were observed”. Further, the Cmax in data set [2] (Table I) and in data set [2] (Table II) was 129 nM throughout.

For the molecule `CN(CCOc1ccc(NS(C)(=O)=O)cc1)CCc1ccc(NS(C)(=O)=O)cc1` [Dofetilide], the PPS came to 2000 in data set [1] (setting [4]) and 0.5 in data set [1] (human). Besides, the Cmax in data set [2] (Table I) and in data set [2] (Table II) was 6 nM each time.

Consider `Cc1cccc(CCN2CCC(C(=O)c3ccc(NS(C)(=O)=O)cc3)CC2)n1` [E-4031], for which the beat rate entry in data set [1] (iPSC-CMs, impedance) is “dose-dependent reduction in beat rate”.

For `CC[C@H]1OC(=O)[C@H](C)[C@@H](O[C@H]2C[C@@](C)(OC)[C@@H](O)[C@H](C)O2)[C@H](C)[C@@H](O[C@@H]2O[C@H](C)C[C@H](N(C)C)[C@H]2O)[C@](C)(O)C[C@@H](C)C(=O)[C@H](C)[C@@H](O)[C@]1(C)O` [Erythromycin], the “alterations in beat patterns / arrhythmic beats” value in data set [1] is on record as “Irregular beating patterns were observed”. The highest concentration (Cmax) in data set [2] (Table I) and in data set [2] (Table II) was 34100 nM throughout.

For the molecule `CNCCC(Oc1ccc(C(F)(F)F)cc1)c1ccccc1` (centres unmarked) [Fluoxetine], the “TdP liability” value in the data set with TdP was “very low risk of TdP”. Further, the Cmax in data set [2] (Table I) and in data set [2] (Table II) was 485 nM each time.

As to `CC(C)NCC(O)c1ccc(O)c(O)c1` (centres unmarked) [Isoproterenol], in data set [1] (iPSC-CMs), the amplitude of impedance entry was “increased”. In addition, in data set [1] (iPSC-CMs, impedance), the beat rate result was “increased”. The “beat rate in MEA” value in data set [3] is reported as “increased”.

For `COc1c(N2C[C@@H]3CCCN[C@@H]3C2)c(F)cc2c(=O)c(C(=O)O)cn(C3CC3)c12` [Moxifloxacin], the “alterations in beat patterns / arrhythmic beats” value in data set [1] is listed as “not torsadogenic”. Also, the PPS in data set [1] (setting [4]) is on record as under 103; in data set [1] (human) it was over 10. Moreover, the “hERG inhibition” value on hERG channel was “inhibit hERG”. Moreover, the maximum concentration (Cmax) in data set [2] (Table I) and in data set [2] (Table II) was 10300 nM each time. In the data set with QT interval (human, in vivo), the “QT prolongation” value is given as “induce QT prolongation”.

With `C[C@@H]1O[C@@H](O[C@H]2C[C@@H](O)[C@]3(CO)[C@H]4[C@H](O)C[C@]5(C)[C@@H](C6=CC(=O)OC6)CC[C@]5(O)[C@@H]4CC[C@]3(O)C2)[C@H](O)[C@H](O)[C@H]1O` [Ouabain], the figures for the PPS in data set [1] (setting [4]) and in data set [1] (human) were 5667 and 0.2, respectively. The IB20 in data set [1] (Table I) and in data set [1] (Table II) was 0.03 µM throughout. Also, the “alterations in beat patterns / arrhythmic beats” value in data set [1] (human iPSC-CMs) was “Irregular beating patterns were observed”. In data set [1] (iPSC-CMs), the amplitude of impedance entry is on record as “increased”. In data set [3] (for nifedipine Ca2+-peak amplitude), the “amplitude in MEA” value is listed as “increased”. In addition, the peak concentration (Cmax) in data set [2] (Table I) and in data set [2] (Table II) was 170 nM throughout.

On to `C=C[C@H]1C[N@@]2CC[C@H]1C[C@@H]2[C@@H](O)c1ccnc2ccc(OC)cc12` [Quinidine], for which the “alterations in beat patterns / arrhythmic beats” value in data set [1] is “Irregular beating patterns were observed”. Further, the values for the PPS in data set [1] (setting [4]) and in data set [1] (human) were 2158 and 0.5, respectively. Also, the Cmax in data set [2] (Table I) and in data set [2] (Table II) was 21600 nM in each case.

In the case of `CS(=O)(=O)c1ccc(C2=C(c3ccccc3)C(=O)OC2)cc1` [Rofecoxib], the “TdP liability” value in the data set on TdP was “devoid of QT prolongation and TdP liability”. Further, the maximum concentration (Cmax) in data set [2] (Table I) and in data set [2] (Table II) was 1020 nM each time. For the same molecule, the “QT prolongation” value with QT interval (in patients / in vivo) is reported as “devoid of QT prolongation”.

With `CC(C)NCC(O)c1ccc(NS(C)(=O)=O)cc1` (centres unmarked) [Sotalol], the “alterations in beat patterns / arrhythmic beats” value in data set [1] was “Irregular beating patterns were observed”. For the same molecule, the maximum concentration (Cmax) in data set [2] (Table I) and in data set [2] (Table II) was 14700 nM each time.

As for `CC(C)(C)c1ccc(C(O)CCCN2CCC(C(O)(c3ccccc3)c3ccccc3)CC2)cc1` (centres unmarked) [Terfenadine], the Cmax in data set [2] (Table I) and in data set [2] (Table II) was 300 nM in each case.

In the case of `NC1=N[C@H](O)[C@H]2[C@H]3O[C@]4(O)O[C@@H]([C@@H](O)[C@@]2(N1)[C@@H]4O)[C@]3(O)CO` [Tetrodotoxin], the beat rate entry in data set [1] is reported as “reduction in beat rate”.

With `CCN(c1ccccc1)c1cc(=NC)n(C)c(C)n1.Cl` [ZD7288], the beat rate entry in data set [1] (iPSC-CMs, impedance) is “reduction in beat rate”.

For `Cc1ccc2c(c1)C(=O)C1(O)CCN(c3ccccc3)C1=N2` (centres unmarked) [blebbistatin], the “cardiomyocyte beating using impedance” value in data set [1] (iPSC-CMs, myosin II inhibition) is on record as “no cardiomyocyte beating was observed”. In addition, the “electrophysiology of the cardiomyocytes detected by MEA” value in data set [3] is on record as “remained unchanged”.

As a reminder, the Cmax is the maximum level reached in the sampled fluid or tissue.
